{"source": "patent EP2592154A1", "about": "“Immobilization products and methods for the identification of histone demethylase interacting molecules and for the purification of histone demethylase proteins” (CELLZOME AG, priority 2011, dated 2013)", "molecular_target": "T1, endogenous UTY (Homo sapiens, UniProt O14607)", "T1 construct": "endogenous UTY; endogenous in cells; host or cells: THP-1 nuclear extract mixed 1:1 with HEK293 lysate", "T1 sequence (O14607 whole entry)": "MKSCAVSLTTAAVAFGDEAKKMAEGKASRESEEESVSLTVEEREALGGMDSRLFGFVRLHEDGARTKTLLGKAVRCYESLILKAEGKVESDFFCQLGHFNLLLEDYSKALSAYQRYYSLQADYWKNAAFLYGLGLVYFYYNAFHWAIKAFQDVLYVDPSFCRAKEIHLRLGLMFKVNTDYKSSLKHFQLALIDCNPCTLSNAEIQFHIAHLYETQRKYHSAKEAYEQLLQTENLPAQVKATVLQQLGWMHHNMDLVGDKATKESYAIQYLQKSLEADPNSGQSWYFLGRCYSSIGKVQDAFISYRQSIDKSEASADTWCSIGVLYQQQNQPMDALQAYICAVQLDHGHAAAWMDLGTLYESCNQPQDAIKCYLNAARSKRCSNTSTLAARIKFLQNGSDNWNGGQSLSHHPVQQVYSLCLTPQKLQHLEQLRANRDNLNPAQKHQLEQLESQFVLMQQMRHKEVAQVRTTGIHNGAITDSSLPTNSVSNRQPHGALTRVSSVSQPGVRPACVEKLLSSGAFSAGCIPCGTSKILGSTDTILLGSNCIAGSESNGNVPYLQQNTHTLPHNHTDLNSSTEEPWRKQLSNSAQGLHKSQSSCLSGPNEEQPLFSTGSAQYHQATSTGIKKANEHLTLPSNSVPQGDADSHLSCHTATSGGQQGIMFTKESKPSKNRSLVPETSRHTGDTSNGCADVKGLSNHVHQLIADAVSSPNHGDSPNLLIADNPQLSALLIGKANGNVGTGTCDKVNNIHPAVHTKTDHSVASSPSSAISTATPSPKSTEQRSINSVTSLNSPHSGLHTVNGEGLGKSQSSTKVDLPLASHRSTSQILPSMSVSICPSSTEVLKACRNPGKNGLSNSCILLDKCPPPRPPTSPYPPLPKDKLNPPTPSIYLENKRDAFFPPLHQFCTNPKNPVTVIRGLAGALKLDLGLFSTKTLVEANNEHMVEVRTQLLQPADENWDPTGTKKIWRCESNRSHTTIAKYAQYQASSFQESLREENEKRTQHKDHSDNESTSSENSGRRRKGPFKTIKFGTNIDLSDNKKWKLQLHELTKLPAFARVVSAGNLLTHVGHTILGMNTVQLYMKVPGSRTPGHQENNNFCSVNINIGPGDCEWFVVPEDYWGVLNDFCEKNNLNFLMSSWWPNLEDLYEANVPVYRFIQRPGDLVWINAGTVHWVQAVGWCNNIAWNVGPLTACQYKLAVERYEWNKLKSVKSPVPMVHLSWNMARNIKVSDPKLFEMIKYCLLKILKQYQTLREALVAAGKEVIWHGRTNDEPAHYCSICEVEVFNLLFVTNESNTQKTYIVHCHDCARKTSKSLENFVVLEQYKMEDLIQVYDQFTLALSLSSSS", "assay": "Bead competition binding assay using immobilized example 1, concentration response curve (HEK293/THP-1 lysate mix)", "conditions": "competition of binding to immobilized example 1, 0.156-40 µM, HEK293 lysate mixed 1:1 with THP-1 nuclear extract", "description": "Then the affinity matrix with the immobilized example 1 was added to capture proteins that were not interacting with the previously added free reference compound. Beads were separated from the lysate and bead bound proteins were eluted in SDS sample buffer and subsequently separated by SDS-Polyacrylamide gel electrophoresis. The gel was stained with colloidal Coomassie and stained areas of each gel lane were cut out and subjected to in-gel proteolytic digestion with trypsin. Peptides originating from the different gel areas were labeled with isobaric tagging reagents (TMT reagents, Thermofisher) as shown in Table 6.\nJMJD3 DNA encoding the catalytic domain (residues 1141-1682, lacking residues 1637-1675; GenBank BC009994) was amplified by PCR and sub cloned into pCDNA3.1 (+) (Invitrogen, V79020) using BamHI and EcoRI A Flag tag was included in the 5' primer, downstream of the BamHI cloning site. […]\nHEK293 cells were homogenized in a Potter S homogenizer in lysis buffer: 50 mM Tris-HCl, 0.8% NP40, 5% glycerol, 150 mM NaCl, 1.5 mM MgCl2, 25 mM NaF, 1 mM sodium vanadate, 1 mM DTT, pH 7.5. […] The supernatant was transferred again to a fresh 50 ml falcon tube, the protein concentration was determined by a Bradford assay (BioRad) and samples containing 50 mg of protein per aliquot were prepared. […]"}
{"compound": "O=C(O)CCNc1cc(N2CCc3ccccc3CC2)nc(-c2ccccn2)n1", "note": "[Reference example 2, N-[2-(2-pyridinyl)-6-(1,2,4,5-tetrahydro-3H-3-benzazepin-3-yl)-4-pyrimidinyl]-β-alanine]", "values": [{"measurement": "IC50", "value": 1.4, "unit": "µM"}]}
